Laboratory results reported in PMC6694155, “PTPσ inhibitors promote hematopoietic stem cell regeneration” (Nature Communications, 2019).

System: BM cells from irradiated CD45.2+ mice in CD45.1+ recipient mice
Assay: HSC competitive repopulation assay
Format: in vivo, mouse
Experimental: Femurs and tibiae were collected from killed C57BL/6 or Ptprs^−/− mice and flushed with IMDM containing 10% FBS and 1% penicillin–streptomycin for BM cells. PB was collected through sub-mandibular puncture. Cells were filtered through a 40 μM strainer and then treated with ACK lysis buffer (Sigma Aldrich) before antibody staining for flow cytometry. For KSL and CD150^+CD48^−KSL cell analysis, BM cells were stained with allophycocyanin (APC)-and Cy7-conjugated anti-mouse Sca1 (BD Biosciences, #560654, 1:100), phycoerythrin (PE)-conjugated anti-mouse c-kit (BD Biosciences, #553355, 1:100), V450 lineage cocktail (BD Biosciences, 561301, 1:10), Alexa Fluor 488-conjugated anti-mouse CD48 (BioLegend, #103414, 1:100), and Alexa Fluor 647-conjugated anti-mouse CD150 (Biolegend, #115918, 1:100) antibodies. […]
CFC assays (colony-forming unit-granulocyte monocyte), burst-forming unit-erythroid, and CFU-GEMM were performed using MethoCult GF M3434 (Stemcell Technologies)[6]. […] Multilineage donor hematopoietic cell engraftment was measured in the PB by flow cytometry.

O=C(/C=C\Nc1cccc([N+](=O)[O-])c1)c1ccccc1 [DJ001, (Z)-3-((3-nitrophenyl)amino)-1-phenylprop-2-en-1-one]
percentages of donor myeloid cells, B cells and T cells in PB vs control (20 weeks post transplant): significantly increased percentages | donor hematopoietic reconstitution over time compared with controls (donors: 750 cGy, 5 mg/kg DJ001 daily, BM at day +10): significantly increased donor hematopoietic reconstitution
